Reference: ChEMBL document CHEMBL3822383, “Coumarin sulfonamides derivatives as potent and selective COX-2 inhibitors with efficacy in suppressing cancer proliferation and metastasis” (Bioorg Med Chem Lett, 2016)
Activity calls are given as the source filed them. The rule behind the calls is not given here.

Legend:
cells [1] = conditions: Mus musculus, B16-F10, 24 h
Description: Antiproliferative activity against mouse B16F10 cells after 24 hrs by MTT assay

HeLa [2] = experiment: cells; conditions: Homo sapiens, 24 h
Description: Antiproliferative activity against human HeLa cells after 24 hrs by MTT assay

A549 = experiment: cells; conditions: Homo sapiens, A549, 24 h
Description: Antiproliferative activity against human A549 cells after 24 hrs by MTT assay

cells [3] = conditions: Homo sapiens, HEK-293T, 24 h
Description: Antiproliferative activity against human 293T cells after 24 hrs by MTT assay

[4] = biological target: Prostaglandin G/H synthase 1 (Homo sapiens, UniProt P23219); experiment: Inhibition of human COX1 using arachidonic acid assessed as production of PGF2alpha after 5 mins by ELISA
HepG2 = experiment: cells; conditions: Homo sapiens, HepG2, 24 h
Description: Antiproliferative activity against human HepG2 cells after 24 hrs by MTT assay

cells [5] = conditions: Homo sapiens, L02, 24 h
Description: Antiproliferative activity against human LO2 cells after 24 hrs by MTT assay

HeLa [6] = experiment: Inhibition of PGE2 secretion in human HeLa cells at 0.1 uM after 24 hrs by EIA monoclonal assay; assay type: functional, cell-based
HeLa [7] = experiment: Inhibition of cell adhesion in human HeLa cells assessed as reduction in cell attachment up to 8 uM after 1 hr by MTT assay; assay type: functional, cell-based

Sequence of Prostaglandin G/H synthase 1 (P23219 whole entry): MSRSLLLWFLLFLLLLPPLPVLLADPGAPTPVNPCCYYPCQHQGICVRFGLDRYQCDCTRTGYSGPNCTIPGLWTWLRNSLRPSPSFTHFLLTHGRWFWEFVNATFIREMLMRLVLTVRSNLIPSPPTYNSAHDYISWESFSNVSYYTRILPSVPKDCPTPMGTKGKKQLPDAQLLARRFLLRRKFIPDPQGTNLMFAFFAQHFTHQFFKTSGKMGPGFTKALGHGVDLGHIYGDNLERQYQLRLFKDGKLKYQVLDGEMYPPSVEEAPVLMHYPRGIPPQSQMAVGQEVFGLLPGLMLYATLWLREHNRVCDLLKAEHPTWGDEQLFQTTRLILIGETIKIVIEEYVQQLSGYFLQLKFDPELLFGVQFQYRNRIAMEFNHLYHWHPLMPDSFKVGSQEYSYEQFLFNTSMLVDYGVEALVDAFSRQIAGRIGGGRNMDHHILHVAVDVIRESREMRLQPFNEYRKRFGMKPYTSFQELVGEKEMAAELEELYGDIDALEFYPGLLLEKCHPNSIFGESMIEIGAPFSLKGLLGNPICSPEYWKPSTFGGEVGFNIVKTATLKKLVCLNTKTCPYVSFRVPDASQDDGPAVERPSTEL

Row | SMILES | IC50 (cells [1]) | IC50 (HeLa [2]) | IC50 (A549) | IC50 (cells [3]) | IC50 [4] | IC50 (HepG2) | IC50 (cells [5]) | inhibition (HeLa [6]) | inhibition (HeLa [7])
1 | COc1ccc(-c2cc(C(=O)N/N=C/c3c(Cl)c4ccccc4oc3=O)nn2-c2ccc(S(N)(=O)=O)cc2)cc1OC | 19.8 µM | 13.1 µM | 40.1 µM | 175 µM | 69.3 µM | 21.2 µM | 187 µM | – | –
2 | NS(=O)(=O)c1ccc(-n2nc(C(=O)N/N=C/c3c(Cl)c4ccccc4oc3=O)cc2-c2ccc([N+](=O)[O-])cc2)cc1 | 4.04 µM | 0.52 µM | 3.85 µM | 113 µM | 42.2 µM | 1.63 µM | 133 µM | – | –
3 | NS(=O)(=O)c1ccc(-n2nc(C(=O)N/N=C/c3c(Cl)c4ccccc4oc3=O)cc2-c2ccc(F)cc2)cc1 | 9.76 µM | 0.94 µM | 11.2 µM | 181 µM | 53.4 µM | 3.53 µM | 192 µM | – | –
4 | Cc1ccc(-c2cc(C(=O)N/N=C/c3c(Cl)c4ccccc4oc3=O)nn2-c2ccc(S(N)(=O)=O)cc2)cc1C | 6.93 µM | 6.92 µM | 24.2 µM | 233 µM | > 100 µM | 4.41 µM | > 300 µM | – | –
5 | NS(=O)(=O)c1ccc(-n2nc(C(=O)N/N=C/c3c(Cl)c4ccccc4oc3=O)cc2-c2ccccc2)cc1 | 9.53 µM | 9.86 µM | 33.5 µM | 180 µM | > 100 µM | 5.76 µM | 183 µM | – | –
6 | NS(=O)(=O)c1ccc(-n2nc(C(=O)N/N=C/c3c(Cl)c4ccccc4oc3=O)cc2-c2cccc(Cl)c2)cc1 | 15.6 µM | 5.46 µM | 14.7 µM | 152 µM | > 100 µM | 6.75 µM | 168 µM | – | –
7 | Cc1cccc(-c2cc(C(=O)N/N=C/c3c(Cl)c4ccccc4oc3=O)nn2-c2ccc(S(N)(=O)=O)cc2)c1 | 5.28 µM | 11.1 µM | 20.3 µM | > 300 µM | 48.2 µM | 5.98 µM | 199 µM | – | –
8 | COc1ccc(-c2cc(C(=O)N/N=C/c3c(Cl)c4ccccc4oc3=O)nn2-c2ccc(S(N)(=O)=O)cc2)cc1 | 7.31 µM | 12 µM | 31.5 µM | > 300 µM | 84.3 µM | 14.7 µM | > 300 µM | – | –
9 | NS(=O)(=O)c1ccc(-n2nc(C(=O)N/N=C/c3c(Cl)c4ccccc4oc3=O)cc2-c2ccccc2O)cc1 | 20.9 µM | 11.7 µM | 17.2 µM | > 300 µM | > 100 µM | 19.9 µM | 159 µM | – | –
10 | NS(=O)(=O)c1ccc(-n2nc(C(=O)N/N=C/c3c(Cl)c4ccccc4oc3=O)cc2-c2ccccc2Cl)cc1 | 9.12 µM | 5.09 µM | 12.3 µM | 254 µM | 86.2 µM | 6.1 µM | 214 µM | – | –
11 | COc1cc(-c2cc(C(=O)N/N=C/c3c(Cl)c4ccccc4oc3=O)nn2-c2ccc(S(N)(=O)=O)cc2)cc(OC)c1OC | 26.2 µM | 16.2 µM | 26.1 µM | 101 µM | 49.8 µM | 20 µM | 116 µM | – | –
12 | Cc1ccc(-c2cc(C(=O)N/N=C/c3c(Cl)c4ccccc4oc3=O)nn2-c2ccc(S(N)(=O)=O)cc2)cc1 | 6.22 µM | 8.81 µM | 22.1 µM | 189 µM | 89.5 µM | 11.3 µM | > 300 µM | – | –
13 | Cc1ccc(-c2cc(C(F)(F)F)nn2-c2ccc(S(N)(=O)=O)cc2)cc1 [CELECOXIB] | 14.4 µM | 7.79 µM | 15.6 µM | 95.3 µM | – | 10 µM | 98.2 µM | Active | inactive
14 | Cc1ccc(-c2cc(C(=O)N/N=C/c3c(Cl)c4ccccc4oc3=O)nn2-c2ccc(S(N)(=O)=O)cc2)c(C)c1 | 4.68 µM | 7.95 µM | 28.5 µM | 175 µM | 39.5 µM | 6.7 µM | 206 µM | – | –
15 | COc1cccc(-c2cc(C(=O)N/N=C/c3c(Cl)c4ccccc4oc3=O)nn2-c2ccc(S(N)(=O)=O)cc2)c1 | 9.58 µM | 7.58 µM | 22.4 µM | 107 µM | > 100 µM | 15.7 µM | 105 µM | – | –
16 | NS(=O)(=O)c1ccc(-n2nc(C(=O)N/N=C/c3c(Cl)c4ccccc4oc3=O)cc2-c2ccc(Cl)c(Cl)c2)cc1 | 7.45 µM | 4.91 µM | 23.5 µM | 153 µM | 96.6 µM | 5.12 µM | > 300 µM | – | –
17 | NS(=O)(=O)c1ccc(-n2nc(C(=O)N/N=C/c3c(Cl)c4ccccc4oc3=O)cc2-c2cccc(F)c2)cc1 | 8.79 µM | 3.43 µM | 16.2 µM | 155 µM | 74.3 µM | 4.74 µM | 206 µM | – | –
18 | NS(=O)(=O)c1ccc(-n2nc(C(=O)N/N=C/c3c(Cl)c4ccccc4oc3=O)cc2-c2ccc(O)cc2)cc1 | 21.3 µM | 12.4 µM | 26.4 µM | 139 µM | > 100 µM | 18.2 µM | 163 µM | – | –
19 | NS(=O)(=O)c1ccc(-n2nc(C(=O)N/N=C/c3c(Cl)c4ccccc4oc3=O)cc2-c2ccccc2F)cc1 | 6.41 µM | 2.85 µM | 14.3 µM | 108 µM | > 100 µM | 5.94 µM | 148 µM | – | –
20 | CCOc1ccc(-c2cc(C(=O)N/N=C/c3c(Cl)c4ccccc4oc3=O)nn2-c2ccc(S(N)(=O)=O)cc2)cc1 | – | – | – | – | 78.5 µM | – | – | – | –
